Our source for the IC50 values is US6706727B1, “Macrolides” (Novartis AG, priority 2002, dated 2004).

The structures appear in SMILES notation.

The test system of this assay is CD4+ antigen-specific human helper T-cell clone (TCC). The assay is described as follows: Antigen-specific stimulation of the helper T-cell clone (TCC) by monocyte-derived dendritic cells, T-cell proliferation (3H-thymidine). Format: cell-based. Conditions: Dpt-pulsed M-DC, M-DC/T-cell ratio 1/50, 4 day culture. An excerpt:
This activity is further evidenced in additional testing with the above helper T-cell clone and monocyte-derived dendritic cells:
The CD4^+ antigen-specific human helper T-cell clone (TCC) is established by limiting dilution culture (Van Reijsen T. C. et al, J. Allergy Clin. Immunol. 90 [1992] 184-193). The TCC recognizes a peptide derived from the major allergen Der p1 of the house dust mite Dermatophagoides pteronyssinus (Dpt) in association with the MHC class II restriction molecule HLA-DPw4 (Baselmnns P. J. et al., Human Immunol. 61 [2000] 789-798). To obtain sufficient cell numbers for assay purposes, the TCC is expanded in vitro by activation with immobilized anti-CD3 monoclonal antibody (Leu4, Becton Dickinson, San Jose, Calif., USA) and culture in complete medium supplemented with rIL-2 and rhIL-4 (50 U/ml each) (Van Reijsen et al., supra).
Human monocyte-derived dendritic cells (M-DC) are generated from purified monocytes by culturing in RPMI 1640 culture medium at a cell density of 7×10^5 cells/ml. The culture medium is supplemented with 15% FCS and rh-GM-CSF (300 U/ml) and rh-IL-4 (100 U/ml). At day 7 of culture, 90-95% of the cells express the phenotype of M-DC as verified by flow cytometry and they are used for antigen-specific stimulation of the TCC, which is used at least 14 days after the last challenge by antigen or anti-CD3 mAb to ensure a resting state of the cells. For antigen-specific stimulation, the M-DC are incubated overnight (at least 12 h) in culture medium containing 50 μ/ml of the extract of Dpt (ARTU Biologicals NV, Lelystad, The Netherlands). The content of the major allergen Der p1 used is about 18.5 μg/mg of Dpt extract. The M-DC are washed twice and 50 μl aliquots of the final number of M-DC are added to 5×10^4 T-cells per well in 100 μl medium, giving a M-DC/T-cell ratio of 1/50. Immediately thereafter, 50 μl aliquots of a four-fold final concentration of test compound are added. Each sample is tested in quadruplicate. The test compound is dissolved in ethanol to provide a stock solution of 1 mM and diluted 1/1000 in the complete culture medium that is also used to prepare the final test compound dilution. T-cell proliferation is determined by pulsing with 1 μCi/20 μl/well of (methyl-)^3H-thymidine (Amersham, U.K) during the final 16 hours of a 4 day culture period.

A word on the IC50: it is the concentration at which inhibition is half-maximal. On to `CC/C1=C\[C@@H](CC)C(=O)C[C@H](O)[C@@H](C)[C@@H](/C(C)=C/[C@@H]2CC[C@H](Cl)[C@H](OC)C2)OC(=O)[C@@H]2CCCCN2C(=O)C(=O)[C@]2(O)O[C@H]([C@@H](OC)C[C@@H](C)C1)[C@@H](OC)C[C@H]2C` [Compound 19-ethyl-ASM], for which the IC50 stood at 6.8 nM.
For the molecule `CC[C@H]1C/C(C)=C/[C@@H](CC)C(=O)C[C@H](O)[C@@H](C)[C@@H](/C(C)=C/[C@@H]2CC[C@H](Cl)[C@H](OC)C2)OC(=O)[C@@H]2CCCCN2C(=O)C(=O)[C@]2(O)O[C@H]([C@@H](OC)C1)[C@@H](OC)C[C@H]2C` [Compound 21-ethyl-ASM], the IC50 is 1.6 nM.
As for `CC[C@H]1C/C(C)=C/[C@@H](CC)C(=O)C[C@H](O)[C@@H](C)[C@@H](/C(C)=C/[C@@H]2CC[C@@H](O)[C@H](OC)C2)OC(=O)[C@@H]2CCCCN2C(=O)C(=O)[C@]2(O)O[C@H]([C@@H](OC)C1)[C@@H](OC)C[C@H]2C` [21-ethyl-ascomycin], the IC50 turned out to be 0.33 nM.
For `CC[C@@H]1C[C@H](OC)[C@@H]2O[C@@]1(O)C(=O)C(=O)N1CCCC[C@H]1C(=O)O[C@H](/C(C)=C/[C@@H]1CC[C@H](Cl)[C@H](OC)C1)[C@H](C)[C@@H](O)CC(=O)[C@H](CC)/C=C(\C)C[C@H](C)C[C@@H]2OC` [Compound 27-ethyl-ASM], the IC50 stood at 4.6 nM.
With `CC[C@@H]1C[C@H](OC)[C@@H]2O[C@@]1(O)C(=O)C(=O)N1CCCC[C@H]1C(=O)O[C@H](/C(C)=C/[C@@H]1CC[C@@H](O)[C@H](OC)C1)[C@H](C)[C@@H](O)CC(=O)[C@H](CC)/C=C(\C)C[C@H](C)C[C@@H]2OC` [27-ethyl-ascomycin], the IC50 turned out to be 0.88 nM.
